Reference: PubChem BioAssay AID1963848 (Molecular Pharmacology Branch, DTP, NCI, 2024)
pIC50: −log10 of the molar value.

System: 379773-124-R-J2-PDC spheroid viability
Assay: Anticancer human tumor 379773-124-R-J2-PDC patient-derived endometrial carcinoma cell line growth inhibition [POLQ]
Conditions: spheroids with HUVEC and MSC; for pIC50: curve of first compound; for viability, T/C: stronger effect = lower value; active means viability on the fitted dose curve at most 10% of control; inactive means the rest
Procedure: Multicellular complex tumor spheroid response to Polymerase (POL) inhibitors (novobiocin, ART-558, RP6685) in combination with a variety of drugs and investigational agents in selected tumor cell lines
The POL inhibitors (novobiocin, ART-558, and RP6685) were evaluated both individually and in combination with standard of care and investigational anticancer small molecules within a complex spheroid model of solid tumors. . Complex spheroids include a stromal component modeled by human endothelial cells (HUVEC) and fibroblasts modeled by human mesenchymal stem cells (MSCs). The concentration ranges selected for each drug and investigational agent were based upon clinically achievable concentrations if the clinical Cmax of the agent was known.
Compounds. The drugs and investigational agents: novobiocin (NSC847541), ART-558 (NSC835418), RP-6685 (NSC848927), peposertib (NSC802822), ceralasertib (NSC780249), elimusertib (NSC800525), camonsertib (NSC841442), AZD-1390 (NSC803789), olaparib (NSC753686), talazoparib (NSC767125), rucaparib (NSC756644), sotorasib (NSC818433), MRTX-1133 (NSC836407), SN-38 (NSC673596), topotecan (NSC609699), epotoside (NSC141540), doxorubicin (NSC123127), gemcitabine (NSC613327), 5-fluorouracil (NSC19893), paclitaxel (NSC125973), vemurafenib (NSC761431), MSA-2 (NSC828583), SN-011 (NSC837082), adavosertib (NSC754352), prexasertib (NSC758257), carboplatin (NSC241240) and oxaliplatin (NSC266046), were obtained from the National Cancer Institute (NCI) Developmental Therapeutics Program Chemical Repository (21). The FDA-approved anticancer drug set is available from the Developmental Therapeutics Program at https://dtp.cancer.gov/organization/dscb/obtaining/. […] The stock solutions were prepared in dimethyl sulfoxide (DMSO, Sigma-Aldrich, St. Louis, MO, cat. D2650), except for the platinum compounds which were prepared in saline (Quality Biological, Gaithersburg, MD, cat. 114-055-101), at 800-fold the tested concentration and stored at -70 degrees C prior to their use. All drugs and investigational agents were tested over a range starting from a high concentration at or near the clinical Cmax and decreasing in half-log increments. If the clinical Cmax for an agent had not been determined, the highest concentration tested was 10 microM, except for SN-38, which was tested at a high concentration of 1 microM.
Cell Culture. All cells were maintained in an incubator at 37 degrees C and 5% CO2 with 95% humidity. The PDC lines were cultured according to standard operating procedures established by the NCI PDMR (https://pdmr.cancer.gov). Table 3 of the manuscript, lists the cell lines along with the number of the three cell types plated to form the mct-spheroids and media for tumor cell growth. After thawing, all PDC lines, except 997537-175-T-J1-PDC and 415267-285-R-J2-PDC, were cultured in Matrigel-coated flasks prepared with a working solution of 1X Ham's F-12 nutrient mix, without supplementation (Thermo Fisher Scientific, cat. 11765054), 100 U/mL penicillin-streptomycin (Thermo Fisher Scientific, cat. 15140122), and 2.5% Matrigel (Corning Inc., Corning, NY, cat. 354248) for the first three passages. The two PDC lines 997537-175-T-J1-PDC and 415267-285-R-J2-PDC were cultured on uncoated flasks. The 857933-349-R-J2-PDC line was cultured in 6C/Colon 1B media containing advanced DMEM/F-12 (Thermo Fisher Scientific, cat. 12634028), 10 mM HEPES (Thermo Fisher Scientific, cat. 15630080), 1X GlutaMAX supplement (Thermo Fisher Scientific, cat. 35050061), 0.1 mg/mL primocin (InvivoGen, San Diego, CA, cat. ant-pm-2), 10% defined fetal bovine serum, heat inactivated (HyClone Laboratories Inc., Logan, UT, cat. SH30070.03HI), 50% L-WRN conditioned media (ATCC, cat. CRL-3276), 1.25 mM N-Acetyl-L-cysteine (Sigma-Aldrich, cat. A9165), 10 mM nicotinamide (Sigma-Aldrich, cat. N0636), 1X B-27 supplement (Thermo Fisher Scientific, cat. 17504044), 1X N-2 supplement (Thermo Fisher Scientific, cat. […]
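Further: spheroids exposed to drugs for seven days before readout.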
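Wherever viability, T/C is given: percent viability relative to DMSO vehicle control taken as 100%.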

CC(=O)O[C@H]1C(=O)[C@@]2(C)[C@H]([C@H](OC(=O)c3ccccc3)[C@]3(O)C[C@H](OC(=O)[C@H](O)[C@@H](NC(=O)c4ccccc4)c4ccccc4)C(C)=C1C3(C)C)[C@]1(OC(C)=O)CO[C@@H]1C[C@@H]2O + COC1C(OC(N)=O)C(O)C(Oc2ccc3c(O)c(NC(=O)c4ccc(O)c(CC=C(C)C)c4)c(=O)oc3c2C)OC1(C)C
inactive: viability, T/C (second compound 0.0316 µM, first compound 0.00949 µM) 19.1% | viability, T/C (second compound 0.1 µM, first compound 0.00949 µM) 23.8% | viability, T/C (second compound 0.316 µM, first compound 0.00949 µM) 18.3% | viability, T/C (second compound 1 µM, first compound 0.00949 µM) 24.1% | viability, T/C (second compound 3.16 µM, first compound 0.00949 µM) 22% | viability, T/C (second compound 10 µM, first compound 0.00949 µM) 18.3%
> 8.02: pIC50 (second compound 0.0316 µM) | pIC50 (second compound 0.1 µM) | pIC50 (second compound 0.316 µM) | pIC50 (second compound 1 µM) | pIC50 (second compound 3.16 µM) | pIC50 (second compound 10 µM)
active: viability, T/C (second compound 0.0316 µM, first compound 0.03 µM) 6.48% | viability, T/C (second compound 0.0316 µM, first compound 0.0949 µM) 7.9% | viability, T/C (second compound 0.0316 µM, first compound 0.3 µM) 9.31% | viability, T/C (second compound 0.0316 µM, first compound 0.949 µM) 7.71% | viability, T/C (second compound 0.0316 µM, first compound 3 µM) 5.65% | viability, T/C (second compound 0.1 µM, first compound 0.03 µM) 7.55% | viability, T/C (second compound 0.1 µM, first compound 0.0949 µM) 8.46% | viability, T/C (second compound 0.1 µM, first compound 0.3 µM) 7.94% | viability, T/C (second compound 0.1 µM, first compound 0.949 µM) 6.43% | viability, T/C (second compound 0.1 µM, first compound 3 µM) 6.33% | viability, T/C (second compound 0.316 µM, first compound 0.03 µM) 8.15% | viability, T/C (second compound 0.316 µM, first compound 0.0949 µM) 8.46% | viability, T/C (second compound 0.316 µM, first compound 0.3 µM) 9.54% | viability, T/C (second compound 0.316 µM, first compound 0.949 µM) 7.17% | viability, T/C (second compound 0.316 µM, first compound 3 µM) 6.23% | viability, T/C (second compound 1 µM, first compound 0.03 µM) 9.6% | viability, T/C (second compound 1 µM, first compound 0.0949 µM) 8.23% | viability, T/C (second compound 1 µM, first compound 0.3 µM) 7.23% | viability, T/C (second compound 1 µM, first compound 0.949 µM) 8.2% | viability, T/C (second compound 1 µM, first compound 3 µM) 6.6% | viability, T/C (second compound 3.16 µM, first compound 0.03 µM) 8.1% | viability, T/C (second compound 3.16 µM, first compound 0.0949 µM) 9.73% | viability, T/C (second compound 3.16 µM, first compound 0.3 µM) 8.26% | viability, T/C (second compound 3.16 µM, first compound 0.949 µM) 6.92% | viability, T/C (second compound 3.16 µM, first compound 3 µM) 6.09% | viability, T/C (second compound 10 µM, first compound 0.03 µM) 7.78% | viability, T/C (second compound 10 µM, first compound 0.0949 µM) 7.88% | viability, T/C (second compound 10 µM, first compound 0.3 µM) 7.81% | viability, T/C (second compound 10 µM, first compound 0.949 µM) 6.9% | viability, T/C (second compound 10 µM, first compound 3 µM) 8.24%
